Assay results reported in ChEMBL document CHEMBL1201862, “PubChem BioAssay data set” (2004).
“And” between values parts separate entries of the source, which are not always exact repeats. Identical values can stand only once. The source made the active and inactive calls.

How the values were obtained:
[1] = target: Caspase-6 (Homo sapiens, UniProt P55212); assay: human caspase-6 inhibitors, dose response, biochemical, VEID-R110 fluorescence, cherry-pick (AID 720632)
[2] = target: Potassium channel subfamily K member 3 (Homo sapiens, UniProt O14649); assay: TASK1 (KCNK3) potassium channel inhibitors, SAR follow-up, CHO cells, FluxOR thallium flux (AID 652212); format: functional
[3] = target: Potassium voltage-gated channel subfamily KQT member 2 (Rattus norvegicus, UniProt O88943); assay: KCNQ2 channel inhibition, SAR follow-up, selectivity assay for TASK1 inhibitor project, cell-based, FluxOR thallium flux, concentration-response (AID 652192); format: functional
[4] = target: T1, Potassium channel subfamily K member 9 (Homo sapiens, UniProt Q9NPC2); assay: TASK3 (KCNK9) channel inhibitors, thallium flux, SAR follow-up, selectivity assay for TASK1 inhibitor project, cell-based, FluxOR thallium flux, concentration-response (AID 652211); format: functional;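 also: potency is for inhibitors of the channel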
[5] = target: Potassium channel subfamily K member 3 (Rattus norvegicus, UniProt O54912); assay: SAR analysis for the identification of selective inhibitors of the two-pore domain potassium channel TASK1(KCNK3):Automated Electrophysiology.; format: functional
[6] = target: T1, Potassium channel subfamily K member 9; assay: KCNK9 (TASK3) current inhibition by patch clamp, SAR follow-up, selectivity assay for TASK1 (KCNK3) inhibitor project, cell-based, automated electrophysiology (AID 652210); format: functional
[7] = target: Metabotropic glutamate receptor 5 (Rattus norvegicus, UniProt P31424); assay: Identification of a glycine sulfonamide based non-MPEP site positive allosteric potentiator (PAM) of mGlu5 (calcium_assay).; format: functional
[8] = YAP1 pathway inhibition via CTGF transcript levels, dose response, cell-based, DLD1 colon cancer, RT-qPCR, cherry-pick (AID 1053122); format: functional; conditions: Cancer cell lines
[9] = NIH:OVCAR-3 ovarian cancer cell cytotoxicity, dose response, PAX8 inhibitor project, plate reader, dry powder samples (AID 743044); format: functional, cell-based
[10] = IGROV1 ovarian cancer cell cytotoxicity, dose response, PAX8 inhibitor project, plate reader, dry powder samples (AID 743043); format: functional, cell-based; conditions: IGROV-1
[11] = target: Paired box protein Pax-8 (Homo sapiens, UniProt Q06710); assay: inhibitors of PAX8-driven TPO luciferase reporter, dose response, RMG-I cells, cherry-pick (AID 687027); format: functional, cell-based;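 also: luciferase reporter driven by Pax8 target thyroperoxidase promoter measured by SteadyGlo luminescence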
[12] = cytotoxicity in OVCAR8 ovarian cancer cells, dose response, PAX8 project, cell-based, plate reader, dry powder samples (AID 743197); format: functional; conditions: OVCAR-8
[13] = IOSE-T80 ovarian epithelial cell cytotoxicity, dose response, cytotoxicity control for PAX8 inhibitor project, plate reader, dry powder samples (AID 743045); format: functional, cell-based
[14] = system: HEK293; assay: cells; format: functional, cell-based; conditions: Homo sapiens
[15] = HIV Env cell-cell fusion inhibitors, dose response, HIV entry, plate reader, dry powder (AID 687023); format: functional, cell-based
[16] = target: Nucleotide-binding oligomerization domain-containing protein 2 (Homo sapiens, UniProt Q9HC29); assay: NOD2 signaling inhibitors, cell-based, luminescence, uHTS, HEK293 (AID 1566); format: functional
[17] = off-target signal loss in HeLa-CEM21 co-culture – HeLa F-luc CTL cells, cherry-picked, counter-screen for HIV-1 Env fusion inhibitor project, dose response (AID 652040); format: functional, cell-based;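 also: potency for signal decrease marking cytotoxic or nonspecific inhibition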
[18] = inhibitors of HIV Env-driven cell fusion, dose response, cherry-pick (AID 652057); format: functional, cell-based
[19] = CEM21 cell cytotoxicity, dose response, cytotoxicity control, plate reader, dry powder (AID 687026); format: functional, cell-based
[20] = system: HEK293; assay: NOD1 signaling inhibitors, primary screen, cell-based, luminescence, uHTS (AID 1578); format: functional; conditions: Homo sapiens
[21] = target: T2, Estrogen receptor (Homo sapiens, UniProt P03372);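 also: potency for inhibiting coactivator peptide recruitment to the receptor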
T2 sequence (P03372 whole entry): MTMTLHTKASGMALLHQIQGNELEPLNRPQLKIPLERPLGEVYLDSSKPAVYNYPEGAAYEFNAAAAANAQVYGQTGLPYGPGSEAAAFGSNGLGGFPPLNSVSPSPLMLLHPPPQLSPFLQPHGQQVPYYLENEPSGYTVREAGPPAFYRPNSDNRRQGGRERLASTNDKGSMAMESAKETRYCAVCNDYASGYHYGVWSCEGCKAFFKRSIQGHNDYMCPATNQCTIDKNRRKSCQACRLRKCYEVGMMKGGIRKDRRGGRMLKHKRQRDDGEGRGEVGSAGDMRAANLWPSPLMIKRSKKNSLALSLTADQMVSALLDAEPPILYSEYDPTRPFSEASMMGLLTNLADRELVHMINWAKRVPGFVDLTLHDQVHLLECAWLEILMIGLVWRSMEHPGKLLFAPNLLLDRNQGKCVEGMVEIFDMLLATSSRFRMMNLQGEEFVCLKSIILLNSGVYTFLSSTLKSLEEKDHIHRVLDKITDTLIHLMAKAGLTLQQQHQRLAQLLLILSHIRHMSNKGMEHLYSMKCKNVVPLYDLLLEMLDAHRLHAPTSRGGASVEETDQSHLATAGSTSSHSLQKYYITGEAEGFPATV

[22] = system: HEK293; assay: cells; format: functional, cell-based; conditions: Homo sapiens; remark: listed apart in the source
[23] = system: HEK293; assay: cells; format: functional, cell-based; conditions: Homo sapiens; remark: listed apart in the source
[24] = inhibitors of clade B AD8 Env fusion, dose response, cell-based, cherry-pick (AID 652062); format: functional;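 also: luciferase signal from cell-cell fusion driven by HIV-1 clade B AD8 Env; potency is for inhibitors of fusion seen as a drop in luminescence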
[25] = ZM109 Env clade C HIV-1 fusion inhibitors, dose response, HeLa effector, CEM target cells, luciferase, cherry-pick (AID 652058); format: functional, cell-based
[26] = system: HEK293; assay: NOD2 signaling inhibitors in MDP-stimulated cells, cell-based, uHTS, luminescence (AID 2001); format: functional; conditions: Homo sapiens
[27] = cytotoxicity in HepG2 cells, dose response, cytotoxicity control, cell-based, cherry-picked samples (AID 1053183); format: functional
[28] = cytotoxicity in HEK293 cells, dose response, cytotoxicity control, cell-based, cherry-picked samples (AID 1053185); format: functional
[29] = cytotoxicity in A549 cells, dose response, cytotoxicity control, cell-based, cherry-picked samples (AID 1053184); format: functional
[30] = inhibitors of PGC1a acetylation in cells, dose response, cell-based, cherry-picked samples (AID 720514); format: functional;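 also: potency may reflect raised or lowered acetylation signal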

T1 sequence (Q9NPC2 whole entry, the tested form may be a part): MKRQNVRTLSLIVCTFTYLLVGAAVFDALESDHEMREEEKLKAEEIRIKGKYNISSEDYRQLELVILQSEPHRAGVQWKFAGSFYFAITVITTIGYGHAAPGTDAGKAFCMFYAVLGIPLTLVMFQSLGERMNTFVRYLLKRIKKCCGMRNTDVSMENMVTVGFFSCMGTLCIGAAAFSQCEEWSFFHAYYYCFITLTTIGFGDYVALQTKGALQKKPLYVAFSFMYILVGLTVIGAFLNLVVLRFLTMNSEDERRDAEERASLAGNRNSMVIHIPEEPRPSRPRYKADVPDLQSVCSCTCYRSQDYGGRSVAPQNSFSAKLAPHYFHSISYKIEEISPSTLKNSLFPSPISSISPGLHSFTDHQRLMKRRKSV
Potassium channel subfamily K member 3 (Homo sapiens, UniProt O14649), sequence (O14649 whole entry): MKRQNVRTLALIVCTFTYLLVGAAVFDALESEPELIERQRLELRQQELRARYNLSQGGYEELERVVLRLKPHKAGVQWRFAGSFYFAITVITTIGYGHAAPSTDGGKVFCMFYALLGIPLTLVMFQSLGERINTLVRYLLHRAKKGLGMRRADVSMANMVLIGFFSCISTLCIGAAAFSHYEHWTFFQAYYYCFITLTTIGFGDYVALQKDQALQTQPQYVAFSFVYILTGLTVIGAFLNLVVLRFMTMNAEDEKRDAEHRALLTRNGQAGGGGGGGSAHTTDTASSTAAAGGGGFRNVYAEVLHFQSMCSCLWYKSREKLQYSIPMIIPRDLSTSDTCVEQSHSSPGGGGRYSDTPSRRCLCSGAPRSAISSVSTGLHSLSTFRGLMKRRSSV
Potassium voltage-gated channel subfamily KQT member 2, sequence (O88943 whole entry): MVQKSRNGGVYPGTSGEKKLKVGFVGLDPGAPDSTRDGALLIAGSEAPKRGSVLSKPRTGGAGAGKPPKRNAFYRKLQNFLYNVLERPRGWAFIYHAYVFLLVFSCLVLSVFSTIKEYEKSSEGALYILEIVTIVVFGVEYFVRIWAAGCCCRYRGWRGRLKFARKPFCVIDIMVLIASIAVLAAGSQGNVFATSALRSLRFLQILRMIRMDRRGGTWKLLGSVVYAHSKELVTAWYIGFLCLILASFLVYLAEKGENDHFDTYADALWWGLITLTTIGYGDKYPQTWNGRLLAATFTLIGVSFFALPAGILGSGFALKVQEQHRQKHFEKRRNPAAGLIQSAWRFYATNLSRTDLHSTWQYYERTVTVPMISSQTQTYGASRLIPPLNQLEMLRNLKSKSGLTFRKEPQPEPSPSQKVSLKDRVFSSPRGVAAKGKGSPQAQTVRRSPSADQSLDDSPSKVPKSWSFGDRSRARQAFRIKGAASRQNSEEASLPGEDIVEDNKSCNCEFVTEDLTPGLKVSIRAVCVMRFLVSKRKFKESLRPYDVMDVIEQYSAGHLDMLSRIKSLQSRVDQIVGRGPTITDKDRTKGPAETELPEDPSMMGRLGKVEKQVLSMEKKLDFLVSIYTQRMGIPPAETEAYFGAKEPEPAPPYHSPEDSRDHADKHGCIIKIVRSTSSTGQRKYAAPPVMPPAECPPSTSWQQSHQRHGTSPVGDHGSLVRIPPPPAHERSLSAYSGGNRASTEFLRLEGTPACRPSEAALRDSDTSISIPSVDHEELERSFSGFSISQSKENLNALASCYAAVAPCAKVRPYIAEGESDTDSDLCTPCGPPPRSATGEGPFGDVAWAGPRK
Paired box protein Pax-8, sequence (Q06710 whole entry): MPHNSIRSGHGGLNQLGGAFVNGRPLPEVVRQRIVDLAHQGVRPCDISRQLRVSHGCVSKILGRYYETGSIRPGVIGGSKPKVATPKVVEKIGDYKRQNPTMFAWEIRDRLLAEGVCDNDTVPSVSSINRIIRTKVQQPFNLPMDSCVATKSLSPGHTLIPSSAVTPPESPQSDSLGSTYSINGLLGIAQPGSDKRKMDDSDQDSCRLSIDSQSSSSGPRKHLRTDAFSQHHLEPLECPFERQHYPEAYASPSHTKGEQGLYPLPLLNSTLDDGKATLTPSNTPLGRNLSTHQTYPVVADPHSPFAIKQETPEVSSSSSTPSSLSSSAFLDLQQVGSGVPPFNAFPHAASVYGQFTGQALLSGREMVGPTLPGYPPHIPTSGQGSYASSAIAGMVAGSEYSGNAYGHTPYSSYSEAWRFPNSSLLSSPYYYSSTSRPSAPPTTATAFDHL
Metabotropic glutamate receptor 5, sequence (P31424 whole entry): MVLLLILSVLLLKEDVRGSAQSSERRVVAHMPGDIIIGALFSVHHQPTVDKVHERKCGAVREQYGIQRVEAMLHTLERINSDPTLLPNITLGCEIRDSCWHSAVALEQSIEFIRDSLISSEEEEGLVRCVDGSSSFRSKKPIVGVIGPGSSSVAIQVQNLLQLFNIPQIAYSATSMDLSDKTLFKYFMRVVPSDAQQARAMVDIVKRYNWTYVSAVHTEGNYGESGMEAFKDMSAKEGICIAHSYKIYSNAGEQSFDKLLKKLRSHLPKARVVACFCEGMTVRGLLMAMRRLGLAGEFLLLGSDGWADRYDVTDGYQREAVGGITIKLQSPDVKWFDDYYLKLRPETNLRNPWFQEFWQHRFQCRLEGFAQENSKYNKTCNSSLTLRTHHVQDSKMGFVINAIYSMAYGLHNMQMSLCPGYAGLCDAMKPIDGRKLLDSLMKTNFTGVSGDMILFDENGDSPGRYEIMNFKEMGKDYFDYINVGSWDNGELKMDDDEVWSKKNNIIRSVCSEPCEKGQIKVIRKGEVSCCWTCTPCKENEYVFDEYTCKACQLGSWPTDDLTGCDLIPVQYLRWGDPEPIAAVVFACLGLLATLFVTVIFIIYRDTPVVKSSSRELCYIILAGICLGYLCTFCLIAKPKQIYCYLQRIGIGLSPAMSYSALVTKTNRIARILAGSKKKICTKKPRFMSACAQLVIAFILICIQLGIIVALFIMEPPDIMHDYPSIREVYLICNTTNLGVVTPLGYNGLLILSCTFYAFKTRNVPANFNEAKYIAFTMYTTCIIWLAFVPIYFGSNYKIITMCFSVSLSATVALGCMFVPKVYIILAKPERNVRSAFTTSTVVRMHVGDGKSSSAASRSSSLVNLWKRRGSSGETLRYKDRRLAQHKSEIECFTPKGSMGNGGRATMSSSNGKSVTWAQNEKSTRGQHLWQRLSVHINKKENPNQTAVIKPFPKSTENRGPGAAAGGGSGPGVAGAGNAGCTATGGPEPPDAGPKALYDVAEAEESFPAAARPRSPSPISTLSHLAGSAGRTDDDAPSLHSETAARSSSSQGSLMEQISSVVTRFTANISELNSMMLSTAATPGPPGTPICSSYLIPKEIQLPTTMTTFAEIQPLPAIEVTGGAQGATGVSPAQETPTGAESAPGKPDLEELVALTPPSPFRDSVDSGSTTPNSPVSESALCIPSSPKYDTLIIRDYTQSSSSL
Caspase-6, sequence (P55212 24-179 limits assumed): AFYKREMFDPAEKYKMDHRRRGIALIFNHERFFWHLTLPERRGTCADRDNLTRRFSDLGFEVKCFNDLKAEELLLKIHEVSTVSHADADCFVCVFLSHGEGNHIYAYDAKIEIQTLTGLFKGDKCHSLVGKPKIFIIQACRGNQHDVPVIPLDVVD
Caspase-6, sequence (P55212 194-293 limits assumed): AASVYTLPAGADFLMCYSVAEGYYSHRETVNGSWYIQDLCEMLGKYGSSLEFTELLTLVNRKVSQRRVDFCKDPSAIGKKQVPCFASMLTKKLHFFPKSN
Potassium channel subfamily K member 3 (Rattus norvegicus, UniProt O54912), sequence (O54912 whole entry, the tested form may be a part): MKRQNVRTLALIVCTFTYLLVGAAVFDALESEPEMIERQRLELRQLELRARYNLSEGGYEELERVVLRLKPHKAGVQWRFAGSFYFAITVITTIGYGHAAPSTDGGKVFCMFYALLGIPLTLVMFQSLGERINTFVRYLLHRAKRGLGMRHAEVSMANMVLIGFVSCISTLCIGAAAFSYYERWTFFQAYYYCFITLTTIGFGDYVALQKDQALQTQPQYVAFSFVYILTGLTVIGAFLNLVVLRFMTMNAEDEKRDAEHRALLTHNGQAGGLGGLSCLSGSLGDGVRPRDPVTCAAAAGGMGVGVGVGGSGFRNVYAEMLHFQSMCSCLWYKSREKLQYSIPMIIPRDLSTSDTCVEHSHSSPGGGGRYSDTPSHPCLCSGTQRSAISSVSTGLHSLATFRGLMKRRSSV
Nucleotide-binding oligomerization domain-containing protein 2, sequence (Q9HC29 whole entry, the tested form may be a part): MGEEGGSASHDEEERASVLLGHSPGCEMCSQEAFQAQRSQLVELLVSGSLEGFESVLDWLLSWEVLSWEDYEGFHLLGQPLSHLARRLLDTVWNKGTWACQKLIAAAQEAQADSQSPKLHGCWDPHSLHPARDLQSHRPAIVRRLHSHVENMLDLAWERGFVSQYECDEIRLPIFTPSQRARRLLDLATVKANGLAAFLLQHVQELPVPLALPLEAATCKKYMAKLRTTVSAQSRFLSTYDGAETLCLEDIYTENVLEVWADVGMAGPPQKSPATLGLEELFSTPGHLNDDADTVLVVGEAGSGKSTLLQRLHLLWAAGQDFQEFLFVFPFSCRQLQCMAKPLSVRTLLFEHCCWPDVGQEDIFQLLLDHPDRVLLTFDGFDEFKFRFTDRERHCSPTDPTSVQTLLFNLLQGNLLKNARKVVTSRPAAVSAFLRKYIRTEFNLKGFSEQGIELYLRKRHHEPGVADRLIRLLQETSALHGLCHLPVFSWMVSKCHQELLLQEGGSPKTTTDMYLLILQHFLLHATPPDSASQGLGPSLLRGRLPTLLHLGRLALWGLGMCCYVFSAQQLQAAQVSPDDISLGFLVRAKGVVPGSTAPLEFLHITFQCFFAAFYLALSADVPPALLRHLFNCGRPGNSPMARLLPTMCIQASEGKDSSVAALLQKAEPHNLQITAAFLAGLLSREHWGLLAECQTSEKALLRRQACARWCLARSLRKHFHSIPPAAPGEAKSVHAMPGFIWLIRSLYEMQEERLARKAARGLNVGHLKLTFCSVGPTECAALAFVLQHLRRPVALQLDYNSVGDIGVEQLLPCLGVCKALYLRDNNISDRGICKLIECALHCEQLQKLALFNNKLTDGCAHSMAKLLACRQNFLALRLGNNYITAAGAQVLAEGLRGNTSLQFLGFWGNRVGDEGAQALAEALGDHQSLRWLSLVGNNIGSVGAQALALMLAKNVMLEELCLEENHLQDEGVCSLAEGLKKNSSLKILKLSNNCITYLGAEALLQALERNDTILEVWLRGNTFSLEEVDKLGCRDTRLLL

O=C(OC1CCOC1=O)c1ccc(Cl)c(S(=O)(=O)N2CCOCC2)c1 (stereo not given)
AC50 [1]: 13.5 µM (active)

CCOc1ccccc1C(=O)Nc1cccc(NC(=O)c2cccc(C)c2)c1
IC50 [2]: 0.01 µM (active) | IC50 [3]: 1.88 µM (active) | IC50 [4]: 0.44 µM (active) | IC50 [5]: 0.011 µM (active) | IC50 [6]: 0.38 µM (active)

O=C(Nc1cccc(Cl)c1)[C@H]1CCc2ccccc2N1S(=O)(=O)c1cccs1
EC50 [7]: > 30 µM (inactive)

CO[C@@H](CN(C)S(=O)(=O)c1ccc(C)cc1)[C@@H](C)CN([C@H](C)CO)S(=O)(=O)c1cccc(Cl)c1
AC50 [8]: 18.6 µM (active)

Cc1ccc(S(=O)(=O)Nc2ccc3c(c2)C(=O)N([C@H](C)CO)C[C@H](C)[C@@H](CN(C)Cc2ccc(C(F)(F)F)cc2)OCCCC[C@H](C)O3)cc1
AC50 [9]: 10.3 µM (active) | AC50 [10]: 15 µM (active) | AC50 [11]: 4.62 µM (active) | AC50 [12]: 16.6 µM (active) | AC50 [13]: 18.1 µM (active)

O=C(CCCn1c(=S)[nH]c2cc3c(cc2c1=O)OCO3)N1CCN(c2ccc(Cl)cc2)CC1
IC50 [14]: 16.4 µM (active) | AC50 [15]: 5.71 µM (active) and 5.84 µM (active) | EC50 [16]: 3.83 µM (active) | AC50 [17]: 44.3 µM (active) | AC50 [18]: 2.75 µM (active) | AC50 [19]: > 70 µM (inactive) | EC50 [20]: 7.73 µM (active) | IC50 [21]: 12.6 µM (active) | IC50 [22]: 8.75 µM (active) | IC50 [23]: > 20 µM (inactive) | AC50 [24]: 7.01 µM (active) | AC50 [25]: 5.45 µM (active) | IC50 [26]: 6.5 µM (active)

Cc1cccc(-c2ccc([C@@H]3[C@@H]4CN(Cc5cccc(F)c5)C[C@H]3N4)cc2)c1
AC50 [27]: 17.7 µM (active) | AC50 [28]: 27.1 µM (active) | AC50 [29]: 35.4 µM (active) | AC50 [30]: 20.4 µM (active)
